Measured values from EP0317053B1, “Trigramin- a platelet aggregation inhibiting polypeptide” (Temple University of the Commonwealth System of Higher …, priority 1987, dated 1989).
Where no end group is shown, it is not given here.

What was measured:
[1] = Hamster mesentery bleeding time during continuous intravenous infusion; assay type: in vivo, golden Syrian hamsters; settings: 2 ng/kg/min; one hamster; positive control
Description: Female golden Syrian hamsters (90-150 g) were maintained on food and water ad libitum, but fasted overnight prior to their use in the present experiment. After the administration of anesthesia (65 mg/kg sodium pentobarbital, i.p.), the animals were shaved in preparation for surgery. The trachea was intubated with PE-100 polyethylene tubing to facilitate spontaneous breathing. Cannulation of the right femoral vein was performed to provide an intravenous route for supplemental anesthesia as well as for the administration of various control and experiment agents. A catheter was introduced into the right carotid artery for the continuous monitoring of arterial blood pressure, and a rectal temperature probe was inserted. […]
The shaved abdomen was opened by a mid-line incision and a portion of the small intestine was exteriorized and draped over a lucite pedestal. […] Bleeding was observed through Zeiss dissecting microscope (20 X) and bleeding time was recorded from the time of the cut until the cessation of bleeding by the formation of a hemostatic plug. Each animal was used as its own control with bleeding time determined both during the infusion of saline and the selected experimental agent. […] Four additional animals were infused with trigramin while arterial blood pressure was continuously monitored to determine if it had any direct effect on systemic blood pressure. […]

GPIIb-GPIIIa complex = test: Binding of 125I-trigramin to human platelets; settings: both ligands

Compound | time after the completion of the infusion until bleeding ceased [1] | inhibition of the binding of ¹²⁵I-trigramin and of ¹²⁵I-fibrinogen to human platelets (GPIIb-GPIIIa complex)
CC#CCC(C)[C@H](O)/C=C/[C@@H]1[C@H]2C/C(=C/CCCC(=O)O)C[C@H]2C[C@H]1O (some centres unmarked) [Iloplrost] | approximately 9 minutes | 
GQQHHLGGAKQAGDV |  | inhibited
